For data set [1], the system named is downmodulation of MHC-I molecules expressed on the surface of HIV infected SupT1 cells. The data set is described as follows: cells. Particulars: for pEC50: Human immunodeficiency virus 1, SUP-T1, read-out: EC50 for inhibition of MHC-I downmodulation utilizing the R1 parameter; for activity at 100 µM: Human immunodeficiency virus 1, SUP-T1, read-out: R1 @ 100 μM (R1 value for MHC-I downmodulation as % of the vehicle control).

A short description of the next data set: in vitro. Particulars: human, uninfected SupT1 cells.

Here are results for 29 compounds from patent publication US20220411419A1, “SMALL MOLECULE MODULATORS OF MHC-I” (RetroVirox, Inc., priority 2018, published 2022).

Broadly, the pEC50 is the negative decadic logarithm of the EC50, by convention in mol/L. For orientation: CC50 means the concentration that lowers cell viability or growth by half. A high value points to lower toxicity to the cells.

The structures appear in SMILES notation. pEC50: −log10 of the molar value.

Regarding `CC1(C)Cc2cccc(CCC(=O)N(Cc3ccccn3)c3nc4c(s3)CCCC4)c2O1` [Compound 104, 3-(2,2-Dimethyl-2,3-dihydrobenzofuran-7-yl)-N-(pyridin-2-ylmethyl)-N-(4,5,6,7-tetrahydrobenzo[d]thiazol-2-yl)propanamide], the pEC50 in data set [1] was 5.96. In “in vitro”, the half-maximal cytotoxic concentration (CC50) at 48 h was > 125 µM.

For the compound `COc1ccccc1OCC(=O)Nc1nc(C)c(C)s1` [Compound 186, N-(4,5-Dimethylthiazol-2-yl)-2-(2-methoxyphenoxy)acetamide], in data set [1], the pEC50 was ≤ 4.60 and the activity at 100 µM turned out to be 18%. Also, in “in vitro”, the CC50 was > 100 µM and the CC50 at 48 h is > 100 µM.

As for `COc1cccc2sc(NC(=O)COc3cccc4c3OC(C)(C)C4)nc12` [Compound 146, 2-((2,2-Dimethyl-2,3-dihydrobenzofuran-7-yl)oxy)-N-(4-methoxybenzo[d]thiazol-2-yl)acetamide], the pEC50 in data set [1] was 5.77. In addition, the CC50 at 48 h in “in vitro” was > 10 µM.

For `C=CCN(C(=O)COc1cccc2c1OC(C)(C)C2)c1nc(C)cs1` [Compound 63, N-Allyl-2-((2,2-dimethyl-2,3-dihydrobenzofuran-7-yl)oxy)-N-(4-methylthiazol-2-yl)acetamide], the negative-log EC50 (pEC50) in data set [1] is 6.72. In addition, in “in vitro”, the CC50 at 48 h was > 100 µM.

For `Cc1ccc(N(C(=O)COc2cccc3c2OC(C)(C)C3)c2ccccc2)nn1` [Compound 89, 2-((2,2-Dimethyl-2,3-dihydrobenzofuran-7-yl)oxy)-N-(6-methylpyridazin-3-yl)-N-phenylacetamide], in data set [1], the pEC50 was 6.42. Moreover, the half-maximal cytotoxic concentration (CC50) at 48 h in “in vitro” was > 100 µM.

For `CC1(C)Cc2cccc(OCC(=O)Nc3nc(C(=O)NCC4CCNC4)cs3)c2O1` (centres unmarked) [Compound 156, 2-(2-((2,2-dimethyl-2,3-dihydrobenzofuran-7-yl)oxy)acetamido)-N-(pyrrolidin-3-ylmethyl)thiazole-4-carboxamide], in data set [1], the pEC50 was < 4.60 and the activity at 100 µM is 40%. Moreover, in “in vitro”, the CC50 is > 90 µM and the CC50 at 48 h was > 90 µM.

On to `Cc1cccc(OCC(=O)N(C)c2nc3c(s2)CCCC3)c1C` [Compound 114, 2-(2,3-Dimethylphenoxy)-N-methyl-N-(4,5,6,7-tetrahydrobenzo[d]thiazol-2-yl)acetamide], for which the negative-log EC50 (pEC50) in data set [1] was 5.92. In addition, the CC50 at 48 h in “in vitro” was > 125 µM.

`CCc1ccc(N(C)C(=O)COc2cccc3c2OC(C)(C)C3)nn1` [Compound 83, 2-((2,2-Dimethyl-2,3-dihydrobenzofuran-7-yl)oxy)-N-(6-ethylpyridazin-3-yl)-N-methylacetamide]: in data set [1], the negative logarithm of the EC50 (pEC50) was 4.89. In addition, in the data set “in vitro”, the CC50 at 48 h was > 125 µM.

In the case of `COC(=O)CN(C(=O)COc1cccc2c1OC(C)(C)C2)c1nc2c(s1)CCCC2` [Compound 99, Methyl 2-(2-((2,2-dimethyl-2,3-dihydrobenzofuran-7-yl)oxy)-N-(4,5,6,7-tetrahydrobenzo[d]thiazol-2-yl)acetamido)acetate], in data set [1], the pEC50 is 4.66. Also, the cytotoxic concentration (CC50) at 48 h in “in vitro” was > 125 µM.

For `Cc1ccc(N(C(=O)COc2cccc3c2OC(C)(C)C3)c2nc(C)cs2)cc1` [Compound 64, 2-((2,2-Dimethyl-2,3-dihydrobenzofuran-7-yl)oxy)-N-(4-methylthiazol-2-yl)-N-(p-tolyl)acetamide], the pEC50 in data set [1] is 6.24. In addition, the CC50 at 48 h in the data set “in vitro” is > 100 µM.

Take `Cc1csc(N(C(=O)COc2cccc3c2OC(C)(C)C3)c2cnccn2)n1` [Compound 90]: in data set [1], the pEC50 was < 4.60 and the activity at 100 µM was 31%. Also, in “in vitro”, the CC50 is > 100 µM and the CC50 at 48 h is > 100 µM.

Consider `CC1(C)Cc2cccc(OCC(=O)Nc3nc4c(-c5ccc[nH]5)cccc4s3)c2O1` [Compound 102, N-(4-(1H-Pyrrol-2-yl)benzo[d]thiazol-2-yl)-2-((2,2-dimethyl-2,3-dihydrobenzofuran-7-yl)oxy)acetamide], for which, in data set [1], the negative-log EC50 (pEC50) was < 4.60 and the activity at 100 µM stood at 20%. For the same compound, in “in vitro”, the CC50 is > 100 µM and the CC50 at 48 h was > 100 µM.

Regarding `CC(C)(C)OC(=O)N1CCC(CNC(=O)c2cnc(NC(=O)COc3cccc4c3OC(C)(C)C4)s2)C1` (centres unmarked) [Compound 157, tert-Butyl 3-((2-(2-((2,2-dimethyl-2,3-dihydrobenzofuran-7-yl)oxy)acetamido)thiazole-5-carboxamido)methyl)pyrrolidine-1-carboxylate], in data set [1], the negative-log EC50 (pEC50) was < 4.60 and the activity at 100 µM is ≥ 100%. In addition, in the data set “in vitro”, the CC50 was > 90 µM and the 50% cytotoxic concentration (CC50) at 48 h is > 90 µM.

As for `C=Cc1ccc(N(C)C(=O)COc2cccc3c2OC(C)(C)C3)nn1` [Compound 82, 2-((2,2-Dimethyl-2,3-dihydrobenzofuran-7-yl)oxy)-N-methyl-N-(6-vinylpyridazin-3-yl)acetamide], the pEC50 in data set [1] is 5.23. Further, the CC50 at 48 h in the data set “in vitro” is > 125 µM.

In the case of `CC1(C)Cc2cccc(OCC(=O)N(Cc3ccncc3)c3nc4c(s3)CCCC4)c2O1` [Compound 52, 2-((2,2-Dimethyl-2,3-dihydrobenzofuran-7-yl)oxy)-N-(pyridin-4-ylmethyl)-N-(4,5,6,7-tetrahydrobenzo[d]thiazol-2-yl)acetamide], the pEC50 in data set [1] was 7.49. The CC50 at 48 h in “in vitro” came to 1 µM.

Turning to `CC1(C)Cc2cccc(OCC(=O)Nc3cccc4cccnc34)c2O1` [Compound 178, 2-((2,2-Dimethyl-2,3-dihydrobenzofuran-7-yl)oxy)-N-(quinolin-8-yl) acetamide], in data set [1], the pEC50 was < 4.60 and the activity at 100 µM was determined as 20%. For the same compound, in the data set “in vitro”, the CC50 was > 25 µM and the CC50 at 48 h is > 25 µM.

In the case of `Cc1csc(NC(=O)COc2ccccc2OCc2ccccc2)n1` [Compound 141, 2-(2-(Benzyloxy)phenoxy)-N-(4-methylthiazol-2-yl)acetamide], the pEC50 in data set [1] was 5.74. In addition, the CC50 at 48 h in “in vitro” was > 100 µM.

As for `COc1ccc(NC(=O)COc2cccc3c2OC(C)(C)C3)nn1` [Compound 26, 2-((2,2-Dimethyl-2,3-dihydrobenzofuran-7-yl)oxy)-N-(6-methoxypyridazin-3-yl)acetamide], in data set [1], the pEC50 is < 4.60 and the activity at 100 µM worked out at 53%. Also, in “in vitro”, the CC50 was > 100 µM and the CC50 at 48 h was > 100 µM.

With `CC1(C)Cc2cccc(OCC(=O)N(c3ccccc3)c3nc4c(s3)CCCC4)c2O1` [Compound 94, 2-((2,2-Dimethyl-2,3-dihydrobenzofuran-7-yl)oxy)-N-phenyl-N-(4,5,6,7-tetrahydrobenzo[d]thiazol-2-yl)acetamide], the pEC50 in data set [1] is 8.82. In addition, the CC50 at 48 h in the data set “in vitro” was > 125 µM.

As to `COc1cccc(C)c1OCC(=O)N(C)c1nc2c(s1)CCCC2` [Compound 116, 2-(2-Methoxy-6-methylphenoxy)-N-methyl-N-(4,5,6,7-tetrahydrobenzo[d]thiazol-2-yl)acetamide], the pEC50 in data set [1] was 6.70. The CC50 at 48 h in “in vitro” is > 125 µM.

`CC1(C)Cc2cccc(OCC(=O)Nc3nc4c(-c5ccncc5)cccc4s3)c2O1` [Compound 101, 2-((2,2-dimethyl-2,3-dihydrobenzofuran-7-yl)oxy)-N-(4-(pyridin-4-yl)benzo[d]thiazol-2-yl)acetamide]: in data set [1], the pEC50 is < 4.60 and the activity at 100 µM came to 40%. In the data set “in vitro”, the CC50 is > 100 µM and the CC50 at 48 h was > 100 µM.

Take `Cc1csc(N(CCc2ccccc2)C(=O)COc2cccc3c2OC(C)(C)C3)n1` [Compound 50, 2-((2,2-Dimethyl-2,3-dihydrobenzofuran-7-yl)oxy)-N-(4-methylthiazol-2-yl)-N-phenethylacetamide]: the pEC50 in data set [1] is 4.85. Moreover, in “in vitro”, the CC50 at 48 h was > 125 µM.

In the case of `CC1(C)Cc2cccc(OCC(=O)N(Cc3ccccc3)c3nc4c(s3)CCCC4)c2O1` [Compound 37, N-Benzyl-2-((2,2-dimethyl-2,3-dihydrobenzofuran-7-yl)oxy)-N-(4,5,6,7-tetrahydrobenzo[d]thiazol-2-yl)acetamide], the pEC50 in data set [1] is 8.70. For the same compound, in the data set “in vitro”, the CC50 at 48 h turned out to be 0.15 µM.

With `COc1c(C)cccc1OCC(=O)N(C)c1nc2c(s1)CCCC2` [Compound 119, 2-(2-Methoxy-3-methylphenoxy)-N-methyl-N-(4,5,6,7-tetrahydrobenzo[d]thiazol-2-yl)acetamide], the pEC50 in data set [1] is 6.11. The CC50 at 48 h in the data set “in vitro” was > 125 µM.

As to `COc1ccccc1OCC(=O)Nc1nc2cc(F)ccc2s1` [Compound 196, N-(5-Fluorobenzo[d]thiazol-2-yl)-2-(2-methoxyphenoxy)acetamide], in data set [1], the pEC50 was < 4.60 and the activity at 100 µM stood at 31%. In the data set “in vitro”, the CC50 is > 100 µM and the CC50 at 48 h was > 100 µM.

For `O=C(COc1cccc2c1CCN2)Nc1nc2c(s1)CCCC2` [Compound 135, 2-(Indolin-4-yloxy)-N-(4,5,6,7-tetrahydrobenzo[d]thiazol-2-yl)acetamide], the pEC50 in data set [1] is 7.06. Also, the CC50 at 48 h in “in vitro” is > 125 µM.

On to `Cc1nc(NC(=O)C(C)(C)Oc2cccc3c2OC(C)(C)C3)sc1C` [Compound 19, 2-((2,2-Dimethyl-2,3-dihydrobenzofuran-7-yl)oxy)-N-(4,5-dimethylthiazol-2-yl)-2-methylpropanamide], for which, in data set [1], the pEC50 was < 4.52 and the activity at 100 µM was 20%. Also, in the data set “in vitro”, the CC50 was > 90 µM and the CC50 at 48 h was > 90 µM.

As to `CC1(C)Cc2cccc(OCC(=O)Nc3cccc4nccnc34)c2O1` [Compound 13, 2-((2,2-Dimethyl-2,3-dihydrobenzofuran-7-yl)oxy)-N-(quinoxalin-5-yl) acetamide], in data set [1], the pEC50 was < 4.60 and the activity at 100 µM amounted to 63%. In “in vitro”, the CC50 is > 100 µM and the CC50 at 48 h was > 100 µM.

As to `CC1(C)Cc2cccc(OCC(=O)Nc3nc4c(Cl)cccc4s3)c2O1` [Compound 145, N-(4-Chlorobenzo[d]thiazol-2-yl)-2-((2,2-dimethyl-2,3-dihydrobenzofuran-7-yl)oxy)acetamide], the pEC50 in data set [1] is 7.04. For the same compound, in the data set “in vitro”, the CC50 at 48 h is > 90 µM.
